Test results taken from a melting point compilation (Tetko et al.; mined from patent text by program, amines drawn as free bases though some values may be those of a salt).
Residues, ends and D or L forms follow the SMILES beside them. *: point of attachment. Cbz = O=C(OCc1ccccc1)*

Compared with `CC(C)(C)[PH](=O)Cc1ccccc1` (centres undefined), `Cn1c(C(=O)OC(C)(C)C)c(Br)c2cc(OCc3ccccc3)ccc21` is higher in melting point: 80 to 82 °C for the first, 97 to 99 °C for the second.

First: COc1cccc(C(=O)c2cccc(C(=O)O)c2)c1
Second: O=C(O)c1ccccc1Sc1ccccc1C(=O)O
The melting point of the first is lower: 160 °C for the first, 226 to 227 °C for the second.

Compared with `COc1cc(OC)nc(Oc2cccc(F)c2C(=O)O)n1`, `COC(=O)c1cc2cc(OC)ccc2[nH]1` is higher in melting point: 133 to 134 °C for the first, 178 to 181 °C for the second.

Compared with `CS(=O)(=O)c1ccc(-c2cnn(-c3cc(Cl)cc(Cl)c3)c(=O)c2-c2ccc(F)cc2)cc1`, `CC(O)(CC(=O)O)c1ccc(-c2ccc(F)cc2)cc1` (centres undefined) is lower in melting point: 289 to 294 °C for the first, 81 to 82 °C for the second.

First: C=CCNc1cc(C)nc2cn[nH]c12
Second: CCNC(C)Cc1ccc(O)cn1 (centres undefined)
The melting point of the first is higher: 172 to 174 °C for the first, 75 to 79 °C for the second.

First: COc1ccc(/C(=C/C=C/C(=O)O)C(C)C)cc1
Second: COc1ccc(C(=O)[C@H]2CC=CC[C@H]2C(=O)O)cc1Br (relative stereo)
The melting point of the first is lower: 132 to 133 °C for the first, 201 to 204 °C for the second.

Compared with `CN(Cc1cccc2c1CN(C1CCC(=O)NC1=O)C2=O)C(=O)Nc1cccc(F)c1` (centres undefined), `Cn1cc(C(=O)Nc2ccccc2-c2ccc(F)c(Cl)c2)c(CF)n1` is lower in melting point: 218 to 220 °C for the first, 133 to 134 °C for the second.

First: CCOC(=O)c1sc(C(=O)OCC)c2c1OC=CCO2
Second: CCOC(=O)C1=C(N)N=C(SC)C(C(=O)OCC)C1c1cccc([N+](=O)[O-])c1 (centres undefined)
The melting point of the first is higher: 198 to 200 °C for the first, 144 °C for the second.

First: CC(N1CCN(C=O)CC1)C(O)(Cn1cncn1)c1ccc(F)cc1F (centres undefined)
Second: Fc1ccc(-n2nc(-c3nc(-c4ccccc4)cs3)c3c2C2CCC3C2)c(F)c1 (centres undefined)
The melting point of the first is lower: 118 to 120 °C for the first, 128 to 130 °C for the second.

First: Nc1sc(/C=C/Cc2ccc(Cl)cc2)c(CN(C2CCCCC2)C2CCCCC2)c1C(=O)c1ccc(Cl)cc1
Second: O=C(Nc1ccc2nc(CN3CCCC3)ccc2c1)c1ccc(-c2ccc(Cl)cc2)nc1
The melting point of the first is lower: 143 to 146 °C for the first, 225 to 227 °C for the second.

Compared with `CCCCC(=N)NC(=O)N(C)c1ccc(Cl)cc1`, `CCOC(=O)ON(C(=O)NC)c1ccc(Cl)c(Cl)c1` is higher in melting point: 59 to 61 °C for the first, 97 to 98 °C for the second.

First: CC(C)c1c(CO)c(-c2ccc(F)cc2)n2ccccc12
Second: CCn1ncc2c3onc(-c4ccc(F)cc4)c3cnc21
The melting point of the first is lower: 94 to 95 °C for the first, 175 to 176 °C for the second.

First: O=C(c1cccc(C(F)(F)F)c1)c1ncccc1C(O)=NNc1ccc(C(F)(F)F)cc1
Second: O=S(=O)(Nc1ccc2c(OCc3ccc(OC(F)(F)F)cc3)cccc2c1)C(F)(F)F
The melting point of the first is higher: 127 to 129 °C for the first, 80 to 82 °C for the second.

First: CC(CCC(=O)OC1CCCCC1)C1CC=C2C3=C(CCC21C)C1(C)CCC(O)C(C)(C)C1CC3 (centres undefined)
Second: CCN1CCc2ccc(Nc3ncc(Cl)c(N[C@H]4CCCC[C@H]4C(=O)NC)n3)cc2CC1 (relative stereo)
The melting point of the first is lower: 130 to 132 °C for the first, 143 °C for the second.

First: O=C(O)c1ccc(C=CC(=O)N2CCc3c([nH]c4ccccc34)C2c2ccc3c(c2)CCO3)nc1 (centres undefined)
Second: O=C(/C=C/c1cccc(F)c1)N1CCN(C(=O)c2cc(C(F)(F)F)cc(C(F)(F)F)c2)[C@H](Cc2c[nH]c3ccccc23)C1
The melting point of the first is higher: 183 °C for the first, 120 to 130 °C for the second.

Compared with `CCCCCCCCCCCCCCCCCCOc1ccc(C(=O)C(=O)N(CC(=O)O)CC(=O)O)cc1`, `CCCCCCCCCCN1C(=O)C2CC2(c2ccc(N)cc2)C1=O` (centres undefined) is lower in melting point: 130 to 132 °C for the first, 92 to 94 °C for the second.

First: CC1=C(c2ccccc2)CCC(=O)N1
Second: ONCc1coc(-c2ccccc2)n1
The melting point of the first is higher: 310 to 330 °C for the first, 59 to 61 °C for the second.

First: CC(C(=O)O)c1ccc(-c2ccc(Cl)cc2F)c(O)c1 (centres undefined)
Second: CCOC(=O)CCc1cc(-c2ccccc2)nn1Cc1ccc(Cl)cc1Cl
The melting point of the first is higher: 145 to 149 °C for the first, 91 to 93 °C for the second.

Compared with `COC(=O)c1c(-c2ccccc2Cl)c2cc(C)c(C)cc2n(C)c1=O`, `O=C1NC(=O)c2c1c(-c1ccccc1Cl)cc1c2c2cc(O)ccc2n1CCS(=O)c1ncn[nH]1` (centres undefined) is higher in melting point: 202 to 203 °C for the first, 237 to 242 °C for the second.

First: O=C(O)C(=O)c1ccoc1
Second: O=C(O)c1ccc(O)c(C(O)C(Cl)Cl)c1 (centres undefined)
The melting point of the first is lower: 94.2 °C for the first, 214 to 215 °C for the second.

First: Cc1sc2cc(CO)ccc2c1C(=O)O
Second: Cc1csc(N2CCN(Cc3ccc(C(=O)O)cc3)C2=O)n1
The melting point of the first is lower: 195 to 196 °C for the first, 222 to 224 °C for the second.

`CC(=O)NCCc1ccc(NC(=O)C=C2CC(C(=O)O)Nc3cc(Cl)cc(Cl)c32)cc1` (racemic) and `CCOC(=O)CC[C@H](NC(=O)c1ccc(CCc2cnc3nc(NC(=O)C(C)(C)C)nc(O)c3c2)cc1)C(=O)OCC` cannot be ordered by melting point: 254 to 256 °C for the first, over 250 °C for the second.

First: COc1cc(S(=O)(=O)N2CCNCC2)cc(OC)c1OC
Second: CNCCc1cc2c(cc1CC(=O)c1ccc(OC)c(OC)c1C(=O)O)OCO2
The melting point of the first is lower: 131 to 133 °C for the first, 176 to 179 °C for the second.

First: CCCOc1c(OC)cc(N)c2ncccc12
Second: CCCn1nc2c(N)nc3ncccc3c2c1CC(C)C
The melting point of the first is lower: 73 to 74 °C for the first, 257 to 260 °C for the second.

First: CN1C(=O)C(NC(=O)c2cc3cc(O)ccc3[nH]2)N=C(c2ccccc2)c2ccccc21 (centres undefined)
Second: COC(=O)c1ccc2c(c1)N(C(=O)c1ccc(-c3ccccc3C(F)(F)F)c(C)c1)Cc1cccn1C2
The melting point of the first is lower: 120 to 130 °C for the first, 180 to 182 °C for the second.

Compared with `COCOC(c1cc(CBr)ccc1I)(C(F)(F)F)C(F)(F)F`, `CC(C)c1ccc2c(c1)OC(C(F)(F)F)C(C(=O)O)=C2` (centres undefined) is higher in melting point: 93 °C for the first, 158 to 160 °C for the second.

First: C=CCOC(=O)c1ccc(-c2ccc3cc(C(=O)OCC)c(C45CC6CC(CC(C6)C4)C5)cc3c2OCCCCC)cc1
Second: Cc1ccc(CN(C)C(=O)C23CC4CC(CC(C4)C2)C3)cc1
The melting point of the first is higher: 116 to 117 °C for the first, 93 to 95 °C for the second.

Compared with `Cc1cc(=O)n(C2CCCCC2)c(=O)n1C`, `O=C1NCc2ccccc2N1C1CCNCC1` is higher in melting point: 135 to 137 °C for the first, 153 to 155 °C for the second.

First: Nc1cccc(-c2ccc(-c3ccc(CCN4CC5C(N)C5C4)cc3)cc2)n1 (centres undefined)
Second: CC1(C)COC(c2ccccc2-c2ccc(-c3ccccc3)cc2)=N1
The melting point of the first is higher: 205 °C for the first, 95 to 97 °C for the second.

First: CC(=CC(=O)NCCCCCC(=O)NO)c1ccccc1
Second: COC(=O)C(C)NC(=O)C1CCCN1C(=O)CNC(=O)OCc1ccccc1 (stereo not drawn) (Cbz-Gly-Pro-Ala-OMe; configuration not given here)
The melting point of the first is higher: 131 to 133 °C for the first, 103 to 106 °C for the second.

Compared with `N#Cc1cccc(Br)c1CBr`, `CN1Cc2c(I)ncn2-c2cccc(Br)c2C1=O` is higher in melting point: 90 to 93 °C for the first, 203 to 204 °C for the second.

Compared with `COC(=O)C(Oc1cc(-n2c(=O)cc(C(F)(F)F)n(C)c2=O)c(F)cc1Cl)C(=O)OC`, `CCOC(=O)c1cn(-c2ncnn2C)c2cc(F)c(F)cc2c1=O` is higher in melting point: 141 °C for the first, 230 to 231 °C for the second.

Compared with `Fc1ccc2nc(Cl)c3nnc(C(F)(F)F)n3c2c1`, `Cc1ccc(Cl)cc1N1CCN(c2nc(=O)c3cc(C(F)(F)F)cc([N+](=O)[O-])c3s2)CC1` is higher in melting point: 135 to 138 °C for the first, 158 to 161 °C for the second.

First: Brc1ccc2c(c1)c1cc(Br)ccc1n2-c1ccccc1
Second: CC(=O)N1CCc2c(c(=O)c3cccnc3n2-c2ccccc2)C1
The melting point of the first is lower: 163 to 164 °C for the first, 210 to 212 °C for the second.

Compared with `Cc1ccc(C2=N[C@H](c3ccccc3)CO2)cc1C#CCN(O)C(N)=O`, `CC(C)(C)OC(=O)Nc1ccc(C#Cc2ccccc2)cc1[N+](=O)[O-]` is lower in melting point: 169 to 170 °C for the first, 146 to 148 °C for the second.

Compared with `Cc1ccc(C(=S)OCSC#N)cc1`, `COC(=O)C1=C(C)Nc2ccccc2SC1c1ccc([N+](=O)[O-])cc1` (centres undefined) is higher in melting point: 55 °C for the first, 150 to 152 °C for the second.

First: CC(=O)Nc1cc2c(cc1[N+](=O)[O-])OC(C)(C)[C@@H](Br)[C@@H]2O (relative stereo)
Second: CC1Cc2c(O)cc(C(=O)O)cc2O1 (centres undefined)
The melting point of the first is higher: 198 to 200 °C for the first, 181 to 184 °C for the second.

First: Cc1cccc(CN(Cc2cccc(C)n2)C(c2ccccn2)c2ccccn2)n1
Second: CN(C)N1C(=O)C(Cc2ccncc2)(Cc2ccncc2)c2ccccc21
The melting point of the first is lower: 168 °C for the first, 190 to 193 °C for the second.

Compared with `Cc1nnc2c(C(C)Br)ccnn12` (centres undefined), `Cc1nc(-c2ccc(=O)[nH]c2C)cs1` is higher in melting point: 125 to 128 °C for the first, 188 to 190 °C for the second.

First: O=C(CC(=O)C1CC1)c1ncc(Cl)cc1Cl
Second: Nc1cc(C(=O)NC2CCC2)n[nH]1
The melting point of the first is lower: 50.2 to 52.7 °C for the first, 147 °C for the second.

First: CN(C)c1cc2c(cc1C(F)(F)F)NC(=O)CC(c1ccnc(C#N)c1)=N2
Second: COc1ccc(-c2nc3cc(OC)cc(-c4ccco4)c3o2)cc1
The melting point of the first is higher: 248 °C for the first, 120 to 121 °C for the second.

Compared with `COc1cc(Nc2c(C#N)cnc3cc(-c4cccc(CN5CCOCC5)c4)sc23)c(Cl)cc1Cl`, `COc1cc(N2CCCN(C)CC2)ccc1Nc1ncc2ccc(-c3ccccc3N(C)S(C)(=O)=O)n2n1` is lower in melting point: 205 to 207 °C for the first, 98 to 105 °C for the second.

First: COC(=O)C1C2C=CC(C2)C1NC(=O)OCc1ccccc1 (centres undefined)
Second: COC(=O)[C@@]12CN(Cc3ccccc3)C[C@@H]1[C@@](O)(c1ccc(OC)cc1)CC[C@H]2c1ccccc1 (racemic)
The melting point of the first is lower: 73 to 76 °C for the first, 136 °C for the second.

Compared with `CCCCCC(CC(=O)Nc1cc(C(=O)O)ccc1C(C)(C)C)c1ccc(C(=O)CC)cc1OC` (centres undefined), `COc1ccc(NC(=O)N(Cc2ccccn2)Cc2ccc(F)cc2F)c(NC(=O)c2cc(C(C)(C)C)c(O)c(C(C)(C)C)c2)c1` is lower in melting point: 197 to 199 °C for the first, 176 to 178 °C for the second.

First: O=C(Nc1ccc(C(=O)N2Cc3ccccc3Sc3ccccc32)cc1)c1ccc(Cl)cc1Cl
Second: CC(=O)N1c2ccccc2OP1c1ccccc1 (centres undefined)
The melting point of the first is higher: 112 to 115 °C for the first, 73 to 75 °C for the second.

First: COc1ccc(C2=NN(C3Cc4ccccc4C3)C(=O)[C@H]3CC=CC[C@@H]23)cc1OC (relative stereo)
Second: COc1cccc2c1CCc1cnoc1-2
The melting point of the first is higher: 163 to 164 °C for the first, 84 to 86 °C for the second.

`CC(C)c1nc(CCOC2=CCC(C(C)(C)C)CC2)n(C)c1Sc1cc(Cl)cc(Cl)c1` (centres undefined) and `COC(=S)C(C)Cc1ccc(OCc2nc3ccc(SC)cc3n2C)cc1` (centres undefined) cannot be ordered by melting point: 99.5 to 100 °C for the first, 97 to 100 °C for the second.

Compared with `CC(=O)OCc1cccc(-n2cccc2)c1Br`, `CCCOC(=O)C=Nc1cc(Cl)ccc1C(=O)O` is higher in melting point: 84 to 86.5 °C for the first, 155 °C for the second.

Compared with `CSc1nnc(-c2ccc(OCC(O)CNCCOc3ccc(O)c(C(N)=O)c3)cc2)n1C` (centres undefined), `CC(C)N(Cc1ccc2cc(NC(=O)N3CCC(c4ccc(Cl)cc4)CC3)ccc2n1)C(C)C` is higher in melting point: 123 to 125 °C for the first, 201 to 203 °C for the second.

In the case of `BrCc1c(Br)c(CBr)c(Br)c(CBr)c1Br`, the melting point is reported as 220 to 223 °C.
